# Results published in ChEMBL document CHEMBL3885881, “DrugMatrix”.
# Species: Rattus norvegicus
# Assay: DrugMatrix - Regimen: Daily Repeat
# Assay type: toxicity, organism-based, Sprague-Dawley
# Set-up: regimen Daily Repeat, gender Male, age 6-8 weeks
# Settings: in vivo, po, route oral GAVAGE, […]; for ABSOLUTE BASOPHIL / ABSOLUTE EOSINOPHIL / ABSOLUTE LYMPHOCYTE / ABSOLUTE MONOCYTE / ABSOLUTE SEGMENTED NEUTROPHIL / BASOPHIL / EOSINOPHIL / ERYTHROCYTE COUNT / HEMATOCRIT / HEMOGLOBIN / LEUKOCYTE COUNT / LYMPHOCYTE / MEAN CORPUSCULAR HEMOGLOBIN / MEAN CORPUSCULAR HEMOGLOBIN CONCENTRATION / MEAN CORPUSCULAR VOLUME / MONOCYTE / NEUTROPHIL / NUCLEATED RED BLOOD CELLS / PLATELET COUNT: tissue Blood; for ALANINE AMINOTRANSFERASE / ALBUMIN / ALKALINE PHOSPHATASE / ASPARTATE AMINOTRANSFERASE / BLOOD UREA NITROGEN / CARBON DIOXIDE / CHLORIDE / CHOLESTEROL / CREATINE PHOSPHOKINASE / CREATININE / GLUCOSE / LACTATE DEHYDROGENASE / LIPASE / PHOSPHORUS / POTASSIUM / SODIUM / TOTAL BILIRUBIN / TOTAL PROTEIN: tissue Plasma
# [1] = 0 mg/kg, 72 h, dose level Control, time 3 day
# [2] = 0 mg/kg, 120 h, dose level Control, time 5 day
# [3] = 40 mg/kg, 72 h, dose level Low, time 3 day
smiles,measurement,setting,value
CN(C)CCCC1(c2ccc(F)cc2)OCc2cc(C#N)ccc21 (stereo not given) [CITALOPRAM],ABSOLUTE BASOPHIL,[1],0 CELLS/uL
same,ABSOLUTE EOSINOPHIL,[1],41.83 CELLS/uL
same,ABSOLUTE LYMPHOCYTE,[1],8545.5 CELLS/uL
same,ABSOLUTE MONOCYTE,[1],240 CELLS/uL
same,ABSOLUTE SEGMENTED NEUTROPHIL,[1],906 CELLS/uL
same,BASOPHIL,[1],0%
same,EOSINOPHIL,[1],0.33%
same,ERYTHROCYTE COUNT,[1],5.6 x10E6/uL
same,HEMATOCRIT,[1],35.4%
same,HEMOGLOBIN,[1],13.42 G/DL
same,LEUKOCYTE COUNT,[1],9.73 x10E3/uL
same,LYMPHOCYTE,[1],87.83%
same,MEAN CORPUSCULAR HEMOGLOBIN,[1],23.98 pg
same,MEAN CORPUSCULAR HEMOGLOBIN CONCENTRATION,[1],37.92 G/DL
same,MEAN CORPUSCULAR VOLUME,[1],63.3 fL
same,MONOCYTE,[1],2.5%
same,NEUTROPHIL,[1],9.33%
same,NUCLEATED RED BLOOD CELLS,[1],0 /100WBC
same,PLATELET COUNT,[1],1032 x10E3/uL
same,ALANINE AMINOTRANSFERASE,[1],72.83 u/L
same,ALBUMIN,[1],4 G/DL
same,ALKALINE PHOSPHATASE,[1],322.83 u/L
same,ASPARTATE AMINOTRANSFERASE,[1],102.67 u/L
same,BLOOD UREA NITROGEN,[1],12 mg/dL
same,CARBON DIOXIDE,[1],34.33 mmol/L
same,CHLORIDE,[1],97.67 MEQ/L
same,CHOLESTEROL,[1],82.5 mg/dL
same,CREATINE PHOSPHOKINASE,[1],410.33 u/L
same,CREATININE,[1],0.18 mg/dL
same,GLUCOSE,[1],164.5 mg/dL
same,LACTATE DEHYDROGENASE,[1],119.5 u/L
same,LIPASE,[1],11.83 u/L
same,PHOSPHORUS,[1],9.52 mg/dL
same,POTASSIUM,[1],5.56 MEQ/L
same,SODIUM,[1],142.48 MEQ/L
same,TOTAL BILIRUBIN,[1],0.18 mg/dL
same,TOTAL PROTEIN,[1],5.77 G/DL
same,ABSOLUTE BASOPHIL,[2],0 CELLS/uL
same,ABSOLUTE EOSINOPHIL,[2],0 CELLS/uL
same,ABSOLUTE LYMPHOCYTE,[2],9065 CELLS/uL
same,ABSOLUTE MONOCYTE,[2],341.33 CELLS/uL
same,ABSOLUTE SEGMENTED NEUTROPHIL,[2],527 CELLS/uL
same,BASOPHIL,[2],0%
same,EOSINOPHIL,[2],0%
same,ERYTHROCYTE COUNT,[2],5.25 x10E6/uL
same,HEMATOCRIT,[2],34.08%
same,HEMOGLOBIN,[2],13.5 G/DL
same,LEUKOCYTE COUNT,[2],9.93 x10E3/uL
same,LYMPHOCYTE,[2],91.17%
same,MEAN CORPUSCULAR HEMOGLOBIN,[2],25.7 pg
same,MEAN CORPUSCULAR HEMOGLOBIN CONCENTRATION,[2],39.62 G/DL
same,MEAN CORPUSCULAR VOLUME,[2],64.93 fL
same,MONOCYTE,[2],3.33%
same,NEUTROPHIL,[2],5.5%
same,NUCLEATED RED BLOOD CELLS,[2],0 /100WBC
same,PLATELET COUNT,[2],1077.5 x10E3/uL
same,ALANINE AMINOTRANSFERASE,[2],57.83 u/L
same,ALBUMIN,[2],4.07 G/DL
same,ALKALINE PHOSPHATASE,[2],319.17 u/L
same,ASPARTATE AMINOTRANSFERASE,[2],83.33 u/L
same,BLOOD UREA NITROGEN,[2],13.67 mg/dL
same,CARBON DIOXIDE,[2],30.83 mmol/L
same,CHLORIDE,[2],98.33 MEQ/L
same,CHOLESTEROL,[2],64.83 mg/dL
same,CREATINE PHOSPHOKINASE,[2],263.67 u/L
same,CREATININE,[2],0.2 mg/dL
same,GLUCOSE,[2],182.83 mg/dL
same,LACTATE DEHYDROGENASE,[2],124 u/L
same,LIPASE,[2],10.5 u/L
same,PHOSPHORUS,[2],10 mg/dL
same,POTASSIUM,[2],5.78 MEQ/L
same,SODIUM,[2],142.48 MEQ/L
same,TOTAL BILIRUBIN,[2],0.2 mg/dL
same,TOTAL PROTEIN,[2],6 G/DL
same,ABSOLUTE BASOPHIL,[3],0 CELLS/uL
same,ABSOLUTE EOSINOPHIL,[3],46.33 CELLS/uL
same,ABSOLUTE LYMPHOCYTE,[3],12847 CELLS/uL
same,ABSOLUTE MONOCYTE,[3],96.67 CELLS/uL
same,ABSOLUTE SEGMENTED NEUTROPHIL,[3],810 CELLS/uL
same,BASOPHIL,[3],0%
same,EOSINOPHIL,[3],0.33%
same,ERYTHROCYTE COUNT,[3],5.4 x10E6/uL
same,HEMATOCRIT,[3],34.8%
same,HEMOGLOBIN,[3],13.67 G/DL
same,LEUKOCYTE COUNT,[3],13.8 x10E3/uL
same,LYMPHOCYTE,[3],93%
same,MEAN CORPUSCULAR HEMOGLOBIN,[3],25.3 pg
same,MEAN CORPUSCULAR HEMOGLOBIN CONCENTRATION,[3],39.27 G/DL
same,MEAN CORPUSCULAR VOLUME,[3],64.37 fL
same,MONOCYTE,[3],0.67%
same,NEUTROPHIL,[3],6%
same,NUCLEATED RED BLOOD CELLS,[3],0 /100WBC
same,PLATELET COUNT,[3],979.33 x10E3/uL
same,ALANINE AMINOTRANSFERASE,[3],61.33 u/L
same,ALBUMIN,[3],3.93 G/DL
same,ALKALINE PHOSPHATASE,[3],390.33 u/L
same,ASPARTATE AMINOTRANSFERASE,[3],85.33 u/L
same,BLOOD UREA NITROGEN,[3],9.33 mg/dL
same,CARBON DIOXIDE,[3],28 mmol/L
same,CHLORIDE,[3],101 MEQ/L
same,CHOLESTEROL,[3],69.67 mg/dL
same,CREATINE PHOSPHOKINASE,[3],135.67 u/L
same,CREATININE,[3],0.31 mg/dL
same,GLUCOSE,[3],158.67 mg/dL
same,LACTATE DEHYDROGENASE,[3],101.67 u/L
same,LIPASE,[3],14.33 u/L
same,PHOSPHORUS,[3],10.5 mg/dL
same,POTASSIUM,[3],6.13 MEQ/L
same,SODIUM,[3],144.7 MEQ/L
same,TOTAL BILIRUBIN,[3],0.17 mg/dL
